According to patent US5373012A, “5-fluoro-2,4,6-pyrimidinetriamine compounds” (The Upjohn Company, priority 1993, dated 1994):
Values joined by “and” are separate entries in the source; they are usually repeats but may differ in a detail not shown here. Equal entries are not always repeated.

How the values were obtained:
[1] = in vivo hair growth assay using rats (shaved hair weighed every seven days); conditions: for Hair Growth: mean
Protocol: The 5-fluoro minoxidil compounds were evaluated for hair growth in an in vivo hair growth assay using rats. Each rat is dosed with vehicle and drug, 200-500 microliters per day, 5 days per week. Every seven days the treated areas are shaved and the hair removed is weighed to compare normal untreated hair growth to the drug treated hair growth.

[2] = hair growth in stumptail macaque monkeys (balding scalp, hair weight change from baseline); assay type: in vivo, stumptail macaque (Macaca specoisa) monkeys; conditions: Table III; topical 100 mM in 50% propylene glycol/50% ethanol, sixteen weeks; vehicle -1.8 ± 2.7; mean±SEM
Protocol: The 5-fluoro minoxidil compounds were evaluated in the macaque monkey models and show significant hair growth results.
Thirteen stumptail macaque (Macaca specoisa) monkeys (mixed sexes) were assigned to vehicle control and drug treated groups on the basis of baseline hair weight data.
1. Topical 50:50 vehicle (N=7)
The control consisted of 50% propylene glycol, 50% ethanol. The experimental composition consisted of a 100 mM concentration of topical 5-fluoro minoxidil formulated in the control vehicle. Immediately prior to the dosing phase of the study, hair was removed from a 1 inch square area (identified by four tattoos) in the center of the balding scalp. This hair collection was the baseline hair growth determination prior to the beginning of treatment. Approximately 250 μL of vehicle or 100 mM 5-fluoro minoxidil (prepared in vehicle)were topically administered to the tattooed area of the scalp. The monkeys were dosed once per day, five days per week for sixteen weeks.
At four week intervals throughout the dosing phase of the study, each monkey was shaved and the hair was collected and weighed. The body weight data (at baseline and during assay) were analyzed by the nonparametric Wilcoxon rank-sum test. Differences were significant at p<0.05. The hair weight data (mean±SEM) at each 4 week collection for vehicle and treatment groups were expressed as the change from baseline. […]

[3] = transdermal absorption: urinary excretion of drug after topical application in rats; assay type: in vivo; conditions: for AVERAGE of total micrograms excreted: average of three rats, urine over 24 hours on fifth day; for AVERAGE of total micrograms excreted / TOTAL MICROGRAMS EXCRETED: 50/30/20 propylene glycol/ethanol/water; for TOTAL MICROGRAMS EXCRETED: individual rats 1-3, urine over 24 hours on fifth day after four days topical treatment
Protocol: The ability of the 5-fluoro minoxidil to be absorbed in transdermal applications was measured versus minoxidil as a control. Three rats were treated with each compound for four days and on the fifth day their urine was collected over a 24 hour period. The urine was then analyzed for drug levels and converted to micrograms urine excreted per 24 hours. The compounds were administered in a 50/30/20 propylene glycol/ethanol/water vehicle.

[4] = cardiovascular effects in vivo in conscious beagle dogs (mean arterial pressure, heart rate); conditions: 1.5 mg/kg; N=1; FIG. 2; 5-fluoro minoxidil compared to minoxidil
Protocol: The 5-fluoro minoxidil compounds were evaluated for cardiovascular effects in an in vivo test with beagle dogs. This test procedure is described in Humprey SJ, Zins GR, Whole Body and Regional Hemodynamic Effects of Minoxidil in the Conscious Dog, J. Card, Pharm. 6:979-88 (1984) and in Humprey, S.J., Zins, G.R., The Effects of Indomethacin on the Systemic and Regional Vasodilator Responses to Minoxidil in the Conscious Dog, Chem. Path. & Pharm. 59:1 3-20 (1988). Experiments were conducted using a radiolabeled tracer microspheres technique, Wagner NH et al., Studies of the Circulation with Radioactive Microspheres, Invest. Radiol. 4:374-86 (1969), with conscious beagle dogs. The results of a rapid evaluation (N=1) of the 5-fluoro minoxidil compound compared to minoxidil are presented in FIG. 1 change in Mean Arterial Pressure versus Time at the doses indicated and FIG. 2 Changes in Heart Rate versus Time at the doses indicated.

Row | Structure (SMILES) | Hair Growth ([1]; Table I, 1 mM, topical, vehicle 50/30/20 propylene glycol/ethanol/water, vehicle +0.527 ± 0.081) | Hair Growth ([1]; Table I, 5 mM, topical, vehicle 50/30/20 propylene glycol/ethanol/water, vehicle +0.527 ± 0.081) | Hair Growth ([1]; Table I, 25 mM, topical, vehicle 50/30/20 propylene glycol/ethanol/water, vehicle +0.527 ± 0.081) | Hair Growth ([1]; Table II, 25 mM 5-fluoro-minoxidil in 50/30/20 propylene glycol/ethanol/water, vehicle +0.528) | Hair Growth (cumulative change in hair weight from baseline) [2] | AVERAGE of total micrograms excreted [3] [MICROGRAMS] | transdermal transport properties versus unsubstituted minoxidil ([3]; in words) | TOTAL MICROGRAMS EXCRETED [3] | absorption versus minoxidil ([3]; transdermal, rats, in words) | statistical difference (p) between the two agents in level of hair growth stimulation ([1]; 100 mM minoxidil vs 25 mM 5-fluoro-minoxidil) | Hair Growth ([1]; Table II, 100 mM minoxidil in 100% PG (propylene glycol), 100% PG alone +0.487) | change in Heart Rate [4]
1 | Nc1nc(N2CCCCC2)c(F)c(N)[n+]1[O-] [5-fluoro minoxidil, 5-Fluoro-6-piperidinyl-2,4-pyrimidinediamine, 3-Oxide] | +0.609 ± 0.083 mg/in^2 /day | +0.760 ± 0.153 mg/in^2 /day | +0.952 ± 0.149 mg/in^2 /day | +0.938 mg/in^2 /day | +14.8 ± 3.1 mg | 1427 | superior transdermal transport properties over unsubstituted minoxidil | 1229 MICROGRAMS and 1132 MICROGRAMS and 1921 MICROGRAMS | superior absorption over the minoxidil control |  |  | 
2 | Nc1cc(N2CCCCC2)nc(N)[n+]1[O-] [Minoxidil, reference compound] |  |  |  |  |  | 454 |  | 354 MICROGRAMS and 358 MICROGRAMS and 651 MICROGRAMS |  | no statistical difference | +1.065 mg/in^2 /day | increases in heart rate
